Test results taken from US20240293551A1, “USE OF ST-TYPE LIPID COMPOUNDS IN PREPARATION OF NUCLEIC ACID DELIVERY REAGENT AND RELATED PRODUCT” (INSTITUTE OF BASIC MEDICAL SCIENCES CHINESE ACADEMY OF …, priority 2021, published 2024).

Test system: PGY-sRNA-26
Test: In vivo delivery study of lipid-nucleic acid mixture (oral gavage, RT-qPCR of PGY-sRNA-26 in tissues)
Set-up: species or system mouse
Conditions: for delivery efficacy over each tissue and blood tested (broad-spectrum delivery): all tissues and blood tested; for oral delivery of single-stranded sRNA nucleic acids into mouse intestinal tissue: intestine
Procedure, shortened: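 C57BL/6 male mice (~6 weeks, 20-24 g), fasted 12 h, were gavaged with 10 nmol 3′-methylated PGY-sRNA-26 mixed with 100 μg lipid (heated 90° C. 15 min), versus saline or free sRNA (n=4 each). After 12 h, blood and tissues were Trizol-extracted; sRNA quantified by stem-loop RT-qPCR relative to U6.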

[1] = C57BL/6 mice, gavage, 100 μg lipid: 10 nmol PGY-sRNA-26, 12 hours
[2] = C57BL/6 mice, gavage, 100 μg lipid: 10 nmol PGY-sRNA-26, 12 hours, brain

Row | SMILES | delivery efficacy over each tissue and blood tested (broad-spectrum delivery) [1] | oral delivery of single-stranded sRNA nucleic acids into mouse blood [1] | oral delivery of single-stranded sRNA nucleic acids into mouse femur [1] | oral delivery of single-stranded sRNA nucleic acids into mouse heart tissue [1] | oral delivery of single-stranded sRNA nucleic acids into mouse intestinal tissue [1] | oral delivery of single-stranded sRNA nucleic acids into mouse kidney tissue [1] | oral delivery of single-stranded sRNA nucleic acids into mouse liver tissue [1] | oral delivery of single-stranded sRNA nucleic acids into mouse lung tissue [1] | oral delivery of single-stranded sRNA nucleic acids into mouse spleen tissue [1] | oral delivery of single-stranded sRNA nucleic acids into mouse stomach tissue [1] | oral delivery of single-stranded sRNA nucleic acids into mouse brain tissue [2] | oral delivery of single-stranded sRNA nucleic acids into mouse brain tissue (mouse, in vivo, po)
1 | C[C@H]1C[C@@H]2[C@H]([C@@H](O)C[C@@]3(C)[C@H]2CC[C@]3(O)C(=O)CO)[C@@]2(C)C=CC(=O)C=C12 [Lipid 547] | exhibited the best delivery efficacy | can effectively orally deliver | can effectively orally deliver | can effectively orally deliver | can effectively orally deliver | can effectively orally deliver | can effectively orally deliver | can effectively orally deliver | can effectively orally deliver | can effectively orally deliver |  | 
2 | CC(=O)OCC(=O)[C@@]1(O)CC[C@H]2[C@@H]3CCC4=CC(=O)CC[C@]4(C)[C@H]3C(=O)C[C@@]21C [Lipid 585] |  | can effectively orally deliver | can effectively orally deliver | can effectively orally deliver | can effectively orally deliver | can effectively orally deliver | can effectively orally deliver | can effectively orally deliver | can effectively orally deliver | can effectively orally deliver | can effectively orally deliver | 
3 | C#C[C@]1(O)CC[C@H]2[C@@H]3CCC4=CC(=O)CC[C@@H]4[C@H]3CC[C@@]21CC [Lipid 560] | exhibited the best delivery efficacy | can effectively orally deliver | can effectively orally deliver | can effectively orally deliver | can effectively orally deliver | can effectively orally deliver | can effectively orally deliver | can effectively orally deliver | can effectively orally deliver | can effectively orally deliver | can effectively orally deliver | 
4 | C[C@]12CC[C@H](O)C[C@H]1CC[C@@H]1[C@@H]2CC[C@]2(C)[C@@H](C3=CC(=O)OC3)CC[C@]12O [Lipid 559] | exhibited the best delivery efficacy | can effectively orally deliver | can effectively orally deliver | can effectively orally deliver | can effectively orally deliver | can effectively orally deliver | can effectively orally deliver | can effectively orally deliver | can effectively orally deliver | can effectively orally deliver | can effectively orally deliver | 
5 | CC(=O)[C@@]1(O)CC[C@H]2[C@@H]3C[C@H](C)C4=CC(=O)CC[C@]4(C)[C@H]3CC[C@@]21C [Lipid 557] | exhibited the best delivery efficacy | can effectively orally deliver | can effectively orally deliver | can effectively orally deliver | can effectively orally deliver | can effectively orally deliver | can effectively orally deliver | can effectively orally deliver | can effectively orally deliver | can effectively orally deliver |  | can effectively orally deliver
6 | C[C@H](CCC(=O)O)[C@H]1CC[C@H]2[C@@H]3CC[C@@H]4C[C@H](O)CC[C@]4(C)[C@H]3C[C@H](O)[C@]12C [Lipid 581] | exhibited the best delivery efficacy | can effectively orally deliver | can effectively orally deliver | can effectively orally deliver | can effectively orally deliver | can effectively orally deliver | can effectively orally deliver | can effectively orally deliver | can effectively orally deliver | can effectively orally deliver | can effectively orally deliver | 
7 | C[C@]12CCC(=O)C=C1CC[C@@H]1[C@@H]2[C@@H](O)C[C@]2(C)C(=O)CC[C@@H]12 [Lipid 555] | exhibited the best delivery efficacy | can effectively orally deliver | can effectively orally deliver | can effectively orally deliver | can effectively orally deliver | can effectively orally deliver | can effectively orally deliver | can effectively orally deliver | can effectively orally deliver | can effectively orally deliver | can effectively orally deliver | 
8 | CC(C)CCC[C@@H](C)[C@H]1CC[C@H]2[C@@H]3CC[C@H]4C[C@@H](O)CC[C@]4(C)[C@H]3CC[C@]12C [Lipid 583, 5α-cholestan-3β-ol (3S,5S,8R,9S,10S,13R,14S,17R)-10,13-dimethyl-17-[(2R)-6-methylheptan-2-yl]-2,3,4,5,6,7,8,9,11,12,14,15,16,17-tetradecahydro-1H-cyclopenta[a]phenanthren-3-ol] |  | can effectively orally deliver | can effectively orally deliver | can effectively orally deliver | can effectively orally deliver |  | can effectively orally deliver | can effectively orally deliver |  | can effectively orally deliver | can effectively orally deliver | 
9 | CC(=O)[C@H]1CC[C@H]2[C@@H]3CCC4=CC(=O)CC[C@]4(C)[C@H]3CC[C@]12C [Lipid 575] | exhibited the best delivery efficacy | can effectively orally deliver | can effectively orally deliver | can effectively orally deliver | can effectively orally deliver | can effectively orally deliver | can effectively orally deliver | can effectively orally deliver | can effectively orally deliver | can effectively orally deliver | can effectively orally deliver | 
